Results: patent publication US20020052331A1, “Compositions and methods for antisense inhibition of protein translation” (priority 1990, published 2002)
Like-named read-outs stand apart in the source and are kept apart here. Strand notation (5' to 3'): a small letter for the sugar, then the base; units joined by * are phosphorothioate-linked, units joined directly phosphodiester-linked; [ ] holds rarer units or linkages, { } end groups; capitals alone tell only the bases. [MMI] = methylene(methylimino) internucleoside backbone linkage; e = 2'-O-(2-methoxyethyl) (MOE); [5mC] = 5-methylcytosine; d = 2'-deoxy (DNA)

Experiments:
Assay type in all cases: cell-based, human
[1] = tested on: ICAM-1 mRNA; assay: Cell surface ICAM-1 expression in U937 cells after electroporation of MMI oligomers; details: six concentrations 4 to 40 μM, N.A. = IC50 not obtained in the given dose range, read-out: Antisense activity (IC50) Electroporate
Protocol: ISIS 14293-14296 are corresponding oligomers with alternating MMI/P═S backbones.
U937 cells were washed once in cold Opti-MEM (Gibco-BRL, Grand Island, N.Y.) and resuspended at 4×10^6 cells/ml. Oligomer was added to 0.1 ml of cells and incubated for 10 minutes on ice. Cells were transferred to a 1 mm gap electrode (BTX, San Diego, Calif.) and electroporated at 0.75 kV/cm. Cells were incubated at room temperature for 10 minutes and transferred to pre-warmed medium. Cells were allowed to rest for 1.5 hours before ICAM-1 expression was induced with 5 ng/ml TNF-αovernight. Cells were stained with an anti-ICAM-1-PE antibody (Pharmingen, San Diego CA) the next day.

[2] = tested on: ICAM-1 mRNA; assay: Cell surface ICAM-1 expression in HUVECs after Lipofectin delivery of MMI oligomers; details: six concentrations 6.2 to 200 nM, N.A. = IC50 not obtained in the given dose range, read-out: Antisense activity (IC50) Lipofectin
[3] = tested on: ICAM-1 mRNA; assay: ICAM-1 expression in U937 cells after electroporation of PNA oligomer (FACS); details: electroporated into U937 cells
Excerpt: A PNA oligomer, ISIS 10535 (SEQ ID NO: 2), was synthesized, which is a shortened version of SEQ ID NO: 1 made as a PNA, with three arginines added at the 5′ end and one lysine added at the 3′ end. This oligomer was electroporated into U937 cells and a potent dose-response was obtained.
Cells were removed from plate surfaces by brief trypsinization with 0.25% trypsin in PBS. Trypsin activity was quenched with a solution of 2% bovine serum albumin and 0.2% sodium azide in PBS (+Mg/Ca). Cells were pelleted by centrifugation at 1000 rpm (Beckman GPR centrifuge), resuspended in PBS and stained with 3 μl/10^5 cells of ICAM-1 specific antibody, CD54-PE (Becton Dickinson, Mansfield Mass.) and 0.1 μg of control conjugated antibody, IgG2b-PE (Pharmingen, San Diego Calif.). Antibodies were incubated with the cells for 30 minutes at 4° C. in the dark, under gentle agitation. Cells were washed and then resuspended in 0.3 ml of FACSFLOW buffer (Becton Dickinson) with 0.5% formaldehyde. Expression of cell surface ICAM-1 was then determined by flow cytometry using a Becton Dickinson FACScan (San Jose, Calif.). ICAM-1 expression was calculated as a percentage of control expression.
Cells were washed in PBS and resuspended in PBS at 1×10^6 cells/ml. […] ICAM-1 expression was quantitated by FACS as in Example 4.

[4] = tested on: ICAM-1 mRNA; assay: Northern blot analysis of ICAM-1 transcript abundance in oligomer-treated HUVECs; details: FIG. 2
Excerpt: Total cellular RNA was isolated from oligomer-treated HUVECs and analyzed to determine if inhibition of ICAM-1 protein expression resulted from antisense-promoted degradation of the target transcript.
(§1) Total cellular RNA was isolated by cellular lysis using CATRIMOX-14 surfactant (Iowa Biotechnology Group, Oakdale Iowa). Isolated RNA was separated on a 1.2% agarose gel containing 1.1% formaldehyde, then transferred to a nylon membrane and UV crosslinked to the membrane using a Stratagene UV crosslinker 2400 (La Jolla Calif.). Blots were hybridized with cDNA probes in QUICKHYB solution (Stratagene). Blots were washed twice at room temperature in 2×SSC with 0.1% SDS for 10 minutes each and then once in […] SSC with 0.1% SDS at 65° C. for 30 minutes.

[5] = tested on: E-selectin mRNA; assay: ELISA of E-selectin expression in HUVECs; details: HUVECs; for IC50: ELISA, read-out: IC50 for reduction of E-selectin expression
[6] = tested on: E-selectin mRNA; assay: Northern blot analysis of E-selectin mRNA levels in oligomer-treated HUVECs
Excerpt: ISIS 11929 is an antisense oligonucleotide targeted to E-selectin, another cellular adhesion molecule, and was included in this experiment as a control.
as §1

Substance: ISIS 14294: T*GA*GT*AG*CA*GA*GG*AG*CT*C (SEQ ID NO: 12), alternating P═S/MMI; ICAM-1 n.t. 1-18 (TGAGTAGCAGAGGAGCTC; linkages [MMI]s[MMI]s[MMI]s[MMI]s[MMI]s[MMI]s[MMI]s[MMI]s[MMI] (s phosphorothioate, o phosphodiester), sugars by position and methylation of C not given here; 3'-terminal nucleotide 2'-deoxy, non-terminal cytosines 5-methylated)
- IC50 [1]: 20 µM
- IC50 [2]: 0.175 µM

Substance: ISIS 14293: T*CT*GA*GT*AG*CA*GA*GG*AG*CT*C (SEQ ID NO: 1), alternating P═S/MMI; ICAM-1 n.t. 1-20 (TCTGAGTAGCAGAGGAGCTC; linkages [MMI]s[MMI]s[MMI]s[MMI]s[MMI]s[MMI]s[MMI]s[MMI]s[MMI]s[MMI] (s phosphorothioate, o phosphodiester), sugars by position and methylation of C not given here; 3'-terminal nucleotide 2'-deoxy, non-terminal cytosines 5-methylated)
- IC50 [1]: 32 µM
- IC50 [2]: 0.115 µM

Substance: ISIS 10535: PNA oligomer (SEQ ID NO: 2), shortened SEQ ID NO: 1, three arginines at the 5′ end and one lysine at the 3′ end (antisense TCTGAGTAGCAGAGGAGC; all peptide nucleic acid (PNA); three arginines at 5' end, one lysine at 3' end)
- ICAM-1 level at higher doses [3]: below baseline levels
- IC50 ([3]; read-out: IC50 for ICAM-1 reduction): < 5 µM

Substance: ISIS 11929: SEQ ID NO: 3, P═O all 2′-MOE except 3′ nt is deoxy, all C's 5meC; E-selectin 5′ cap (antisense eGeAeAeGeTe[5mC]eAeGe[5mC]e[5mC]eAeAeGeAeAe[5mC]eAeGe[5mC]dT)
- relative abundance of the ICAM-1 transcript (Northern blot) [4]: did not cause an increase
- IC50 ([5]; FIG. 5 experiment): < 0.003 µM
- IC50 ([5]; equivalent (second) experiment): < 0.003 µM
- IC50 for inhibition of E-selectin expression ([5]; FIG. 3 experiment): well below this
- inhibition of E-selectin expression ([5]; oligomer concentration of 50 nM): ~100%
- E-selectin mRNA levels [6]: did cause an increase
